Data on 6 substances can be found in patent publication US5017565A, “Use of sulfated polysaccharides to inhibit pancreatic cholesterol esterase” (priority 1989, dated 1991).

Format in all cases: biochemical
In data set [1] the target is Human pancreatic cholesterol esterase. Briefly: Inhibition of cholesteryl 14C-oleate hydrolysis by cholesterol esterase. As to conditions: for IC50 cholesterol esterase inhibition: 37° C., fifteen minutes, pH 7.5.
Data set [2] addresses human 100 kDa cholesterol esterase. As to the kind of experiment: Inhibition of triolein hydrolysis by cholesterol esterase. As to conditions: table 3; triolein used instead of cholesterol oleate. Here is the method: (§1) Alginic acid from Macrocystis pyrifera (kelp) was dissolved in water at a concentration of 1 mg/ml. This stock solution was used to prepare various polysaccharide concentrations down to 10^-5 mg/ml. Human pancreatic cholesterol esterase was purified as described by Bosner et al., Proc Nat'l. Acad. Sci., 85, 7438 (1988). To measure cholesterol esterase inhibition by alginic acid, 50 μl of cholesterol esterase (10 μg/ml). 75 μl of phosphatidylcholine vesicles containing cholesteryl ^14 C-oleate (1 mM 2,000 CPM/nmole). 25 μl of 100 mM taurocholate, 120 μl of 150 mM Tris. pH 7.5 and 30 μl of test alginic acid solution were incubated at 37° C. for fifteen minutes. The assay was quenched by placing the reaction vessels in a 4° C. ice bath and by adding 0.6 ml of 0.3 N NaOH and 3 ml of benzene/chloroform/methanol (1 0/1.2/0 5). The quenched reactions were vortexed for 30 seconds, centrifuged at 3,000 g for 15 minutes and 1 ml of the upper aqueous phase was added to 7 ml of Aquasol-2 (DuPont) with 0.025 ml of 6 N HCl. These mixtures were vortexed for one minute and counted for ^14 C-oleate The counts were compared to a sample which contained cholesterol esterase but no alginic acid to determine the percentage of inhibition.
(The same assay procedure was used as described in Part I, only triolein was used instead of cholesterol oleate.) As shown in the table below, the IC50 for inhibition of triolein hydrolysis is nearly the same as that for cholesteryl oleate hydrolysis.

In another data set the test system is cholesterol esterase. As to the kind of experiment: Cholesterol esterase inhibition by water extract of baked muffin (stability under baking conditions). The following applies: qualitative statement. Here is the method:
as §1
The sulfated polysaccharides described here retain their inhibitory activity for prolonged periods at elevated temperatures. […]

Setting [3] is: cholesteryl 14C-oleate substrate.
[4] abbreviates: cholesteryl 14C-oleate substrate, molar value assumes a molecular weight (alginic acid 240 kDa, pectin 20 kDa, chitin 300 kDa, cellulose sulfate 500 kDa), read-out: IC50 cholesterol esterase inhibition.
Where [5] appears, read: table 2, summary of sulfated polysaccharides, read-out: IC50.
Setting [6] is: table 3, cholesteryl oleate hydrolysis, read-out: IC50 (nM) Cholesteryl Oleate.

Read-outs that look alike come from different tables or passages of the source.

Consider Chitosan Sulfate, for which the “IC50 cholesterol esterase inhibition” value in data set [1] (setting [3]) came to 0.015 µg/mL. For the same substance, the IC50 in data set [1] (setting [4]) amounted to 0.03 nM; in data set [1] (setting [5]) it was 0.03 nM; in data set [1] (setting [6]), 0.03 nM; in data set [2], 0.16 nM.
Consider pectin [reference compound], for which, in data set [1] (qualitative statement), the “Inhibition of cholesterol esterase (in words)” value was “does not inhibit cholesterol esterase”.
Regarding Cellulose Sulfate, the IC50 came out at 0.02 nM in data set [1] (setting [4]), 0.02 nM in data set [1] (setting [5]), 0.02 nM in data set [1] (setting [6]) and 0.06 nM in data set [2]. In the data set on cholesterol esterase, the “Retention of inhibitory activity at elevated temperatures / stability under baking conditions (in words)” value is on record as “stable under baking conditions”.
For the substance Chitin Sulfate, the IC50 in data set [1] (setting [5]) amounted to 0.06 nM; in data set [1] (setting [6]), 0.06 nM; in data set [2], 0.14 nM.
Regarding Alginic acid [reference compound], the “IC50 cholesterol esterase inhibition” value in data set [1] (setting [3]) was 4 µg/mL. Further, the results for the half-inhibitory concentration (IC50) in data set [1] (setting [4]), in data set [1] (setting [6]) and in data set [2] were 20 nM, 20 nM and 42 nM, respectively. The “Enhancement Factor” value in data set [1] (table 1, enhancement of inhibition relative to native alginic acid (fold)) is 1.0.
Turning to Dextran Sulfate, the IC50 in data set [1] (setting [4]), in data set [1] (setting [5]) and in data set [1] (setting [6]) was 0.02 nM in each case.
